Experimental data from publication doi:10.1101/2024.03.05.583521v1 (biorxiv, 2024).
Each block holds one molecule with its values, some of them ahead of it.

Tests used:
PIB-1 [1] = molecular target: T1, PIB-1 (Pseudomonas aeruginosa, UniProt Q9HT32); assay: isothermal titration calorimetry; format: binding
T1 sequence (Q9HT32 28-414): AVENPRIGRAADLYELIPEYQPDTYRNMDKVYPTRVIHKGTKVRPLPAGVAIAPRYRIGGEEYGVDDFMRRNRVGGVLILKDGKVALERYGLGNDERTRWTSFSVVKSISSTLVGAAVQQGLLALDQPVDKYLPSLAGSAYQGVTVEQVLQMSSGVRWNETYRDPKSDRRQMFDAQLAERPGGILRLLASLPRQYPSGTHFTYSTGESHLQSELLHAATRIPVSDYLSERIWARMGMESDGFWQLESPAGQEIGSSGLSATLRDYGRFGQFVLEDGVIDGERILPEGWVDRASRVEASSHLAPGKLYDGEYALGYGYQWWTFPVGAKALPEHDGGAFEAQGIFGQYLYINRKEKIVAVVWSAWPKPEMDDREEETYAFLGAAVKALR

PIB-1 [2] = molecular target: T1, PIB-1; assay: intrinsic protein fluorescence quenching; format: binding
purified protein = substrate: O=C(Cc1cccs1)N[C@@H]1C(=O)N2C(C(=O)O)=C(/C=C/c3ccc([N+](=O)[O-])cc3[N+](=O)[O-])CS[C@H]12; assay: purified protein; settings: no added metal, 10 mM Na-HEPES pH 7.5, 100 mM NaCl, 37 °C

Kd (PIB-1 [1]): 79.8 ± 5.9 µM
Molecule: C[C@@H](O)[C@H]1C(=O)N2C(C(=O)O)=C(SCCN=CN)C[C@H]12 [imipenem]

Kd (PIB-1 [2]): 74.8 ± 10.3 µM
Molecule: C[C@@H](O)[C@H]1C(=O)N2C(C(=O)O)=C(S[C@@H]3CN[C@H](C(=O)N(C)C)C3)[C@H](C)[C@H]12 [meropenem]

B1: PIB-1 (Pseudomonas aeruginosa PAO1) (protein)
chain: T1 sequence (Q9HT32 28-414)
Km (purified protein): 95.3 ± 8.9 µM | kcat (purified protein): 0.0041 ± 0.0005 s⁻¹
